Source: PubChem BioAssay AID248 (DTP/NCI, 2004)
Where “and” joins values, the source holds several entries; their conditions need not be identical. Equal entries are not always repeated. Toxic doses and inconclusive results are not listed. Rule as the data show it: active = T/C of 150% or more; inactive = T/C below 125%.

Tested on: L1210 leukemia ip in BDF1 mice, survival T/C
Experiment: NCI In Vivo Anticancer Drug Screen. Data for tumor model L1210 Leukemia (intraperitoneal) in B6D2F1 (BDF1) mice
Details: endpoint: mean survival time, higher = longer survival
Outline: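 In this screen, tumor-bearing mice given compound are compared to those given vehicle, and their survival values are reported as a treated-to-control quotient.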

[1] = dose: 100.0 mg/kg/injection, schedule: Q01DX001 (ip), vehicle: Klucel (hydroxypropylcellulose) (HPC)
[2] = dose: 100.0 mg/kg/injection, schedule: Q01DX009 (ip), vehicle: Klucel (hydroxypropylcellulose) (HPC)
[3] = dose: 100.0 mg/kg/injection, schedule: Q04DX003 (ip), vehicle: Klucel (hydroxypropylcellulose) (HPC)
[4] = dose: 200.0 mg/kg/injection, schedule: Q01DX009 (ip), vehicle: Klucel (hydroxypropylcellulose) (HPC)
[5] = dose: 200.0 mg/kg/injection, schedule: Q04DX003 (ip), vehicle: Klucel (hydroxypropylcellulose) (HPC)
[6] = dose: 400.0 mg/kg/injection, schedule: Q04DX003 (ip), vehicle: Klucel (hydroxypropylcellulose) (HPC)
[7] = dose: 6.25 mg/kg/injection, schedule: Q01DX009 (ip), vehicle: Klucel (hydroxypropylcellulose) (HPC)
[8] = dose: 12.5 mg/kg/injection, schedule: Q01DX009 (ip), vehicle: Klucel (hydroxypropylcellulose) (HPC)
[9] = dose: 100.0 mg/kg/injection, schedule: Q04DX002 (ip), vehicle: Klucel (hydroxypropylcellulose) (HPC)
[10] = dose: 200.0 mg/kg/injection, schedule: Q04DX002 (ip), vehicle: Klucel (hydroxypropylcellulose) (HPC)
[11] = dose: 50.0 mg/kg/injection, schedule: Q01DX001 (ip), vehicle: saline
[12] = dose: 100.0 mg/kg/injection, schedule: Q01DX001 (ip), vehicle: saline
[13] = dose: 200.0 mg/kg/injection, schedule: Q01DX001 (ip), vehicle: saline
[14] = dose: 25.0 mg/kg/injection, schedule: Q01DX009 (ip), vehicle: Klucel (hydroxypropylcellulose) (HPC)
[15] = dose: 25.0 mg/kg/injection, schedule: Q04DX003 (ip), vehicle: Klucel (hydroxypropylcellulose) (HPC)
[16] = dose: 25.0 mg/kg/injection, schedule: Q01DX009 (ip), vehicle: saline with Tween-80
[17] = dose: 50.0 mg/kg/injection, schedule: Q01DX009 (ip), vehicle: saline with Tween-80

Measured: T/C

BrC1(Br)C2C3C=CC4C(C=C3)C4C21 (configuration not stated)
inactive: dose: 50.0 mg/kg/injection, schedule: Q01DX001 (ip), vehicle: Klucel (hydroxypropylcellulose) (HPC) 105 % of control | [1] 103 % of control | dose: 200.0 mg/kg/injection, schedule: Q01DX001 (ip), vehicle: Klucel (hydroxypropylcellulose) (HPC) 108 % of control

CC(C)(C)NC(C1=CC(C)(C)c2ccccc2C1=O)c1ccccc1 (configuration not stated)
inactive: [2] 98 % of control | [3] 110 % of control | [4] 104 % of control | [5] 102 % of control | dose: 400.0 mg/kg/injection, schedule: Q01DX009 (ip), vehicle: Klucel (hydroxypropylcellulose) (HPC) 101 % of control | [6] 102 % of control

CC1(C)CC(=O)c2c(cc(OS(C)(=O)=O)cc2OS(C)(=O)=O)O1
inactive: dose: 3.12 mg/kg/injection, schedule: Q01DX009 (ip), vehicle: Klucel (hydroxypropylcellulose) (HPC) 90 % of control | [7] 97 % of control | [8] 94 % of control

Cc1ccc(N=Nc2sc(N)nc2C)c(C)c1
inactive: dose: 75.0 mg/kg/injection, schedule: Q01DX001 (ip), vehicle: saline 97 % of control | dose: 150.0 mg/kg/injection, schedule: Q01DX001 (ip), vehicle: saline 103 % of control

CCCCCCCC/C=C\CCCCCCCC(=O)NCCCOCCOCC
inactive: dose: 75.0 mg/kg/injection, schedule: Q04DX003 (ip), vehicle: saline 94 % of control | dose: 150.0 mg/kg/injection, schedule: Q04DX003 (ip), vehicle: saline 96 % of control | dose: 300.0 mg/kg/injection, schedule: Q04DX003 (ip), vehicle: saline 96 % of control

CC1CCN(c2ccc([N+](=O)[O-])cc2[N+](=O)[O-])CC1
inactive: [2] 99 % of control | [3] 104 % of control | [4] 99 % of control | [5] 98 % of control | [6] 103 % of control

O=C1OC(/C=C\c2ccccc2)=NC/1=C\c1cc(Cl)cc(Cl)c1O
inactive: [9] 108 % of control | [10] 112 % of control | dose: 400.0 mg/kg/injection, schedule: Q04DX002 (ip), vehicle: Klucel (hydroxypropylcellulose) (HPC) 108 % of control

Nc1nc(CO)c(CCCCc2ccccc2)c(=O)[nH]1
inactive: [11] 101 % of control | [12] 101 % of control | [13] 98 % of control | dose: 400.0 mg/kg/injection, schedule: Q01DX001 (ip), vehicle: saline 101 % of control

O=Nc1ccc(O)cc1
inactive: [14] 96 % of control | dose: 25.0 mg/kg/injection, schedule: Q04DX002 (ip), vehicle: Klucel (hydroxypropylcellulose) (HPC) 104 % of control | [15] 102 % of control | dose: 50.0 mg/kg/injection, schedule: Q01DX009 (ip), vehicle: Klucel (hydroxypropylcellulose) (HPC) 102 % of control and 103 % of control | dose: 50.0 mg/kg/injection, schedule: Q04DX002 (ip), vehicle: Klucel (hydroxypropylcellulose) (HPC) 100 % of control | dose: 50.0 mg/kg/injection, schedule: Q04DX003 (ip), vehicle: Klucel (hydroxypropylcellulose) (HPC) 98 % of control | [2] 112 % of control and 123 % of control | [9] 104 % of control | [3] 100 % of control | [4] 100 % of control and 110 % of control | [10] 103 % of control | [5] 104 % of control

COc1ccc(/C=N/NC(=S)Nc2ccccn2)cc1OC
inactive: [16] 104 % of control | [17] 93 % of control | dose: 100.0 mg/kg/injection, schedule: Q01DX009 (ip), vehicle: saline with Tween-80 122 % of control

CN(C)C(=S)[S][Sb]([S]C(=S)N(C)C)[c]1ccccc1
inactive: dose: 100.0 mg/kg/injection, schedule: Q01DX001 (ip), vehicle: steriod suspending solution 96 % of control | dose: 200.0 mg/kg/injection, schedule: Q01DX001 (ip), vehicle: steriod suspending solution 96 % of control

CC(O)c1ccc2ccccc2c1 (configuration not stated)
inactive: dose: 100.0 mg/kg/injection, schedule: Q04DX003 (ip), vehicle: saline with Tween-80 98 % of control | dose: 200.0 mg/kg/injection, schedule: Q04DX003 (ip), vehicle: saline with Tween-80 101 % of control | dose: 400.0 mg/kg/injection, schedule: Q04DX003 (ip), vehicle: saline with Tween-80 96 % of control

CCCC/C=C/CO
inactive: [16] 97 % of control | [17] 97 % of control and 100 % of control | dose: 200.0 mg/kg/injection, schedule: Q01DX009 (ip), vehicle: saline with Tween-80 97 % of control and 100 % of control

CCCCCCCC(=O)OCCCl
inactive: dose: 100.0 mg/kg/injection, schedule: Q01DX009 (ip), vehicle: saline 94 % of control | dose: 200.0 mg/kg/injection, schedule: Q01DX009 (ip), vehicle: saline 97 % of control | dose: 400.0 mg/kg/injection, schedule: Q01DX009 (ip), vehicle: saline 91 % of control

N=C(N=Nc1c(O)[nH]c2ccccc12)N[N+](=O)[O-]
inactive: [7] 95 % of control | [8] 101 % of control | dose: 12.5 mg/kg/injection, schedule: Q04DX003 (ip), vehicle: Klucel (hydroxypropylcellulose) (HPC) 100 % of control | [14] 91 % of control | [15] 102 % of control

O=c1cn[nH]c(=O)[nH]1
inactive: dose: 62.5 mg/kg/injection, schedule: Q01DX009 (ip), vehicle: saline 105 % of control and 107 % of control | dose: 62.5 mg/kg/injection, schedule: Q01DX010 (ip), vehicle: saline 97 % of control and 102 % of control | dose: 110.1 mg/kg/injection, schedule: Q01DX Z (ip), vehicle: carboxymethylcellulose (CMC) 107 % of control | dose: 125.0 mg/kg/injection, schedule: Q01DX009 (ip), vehicle: saline 103 % of control and 118 % of control | dose: 125.0 mg/kg/injection, schedule: Q01DX010 (ip), vehicle: saline 94 % of control and 101 % of control | dose: 132.0 mg/kg/injection, schedule: Q01DX Z (ip), vehicle: methylcellulose (MC) 97 % of control | dose: 200.0 mg/kg/injection, schedule: Q01DX Z (ip), vehicle: methylcellulose (MC) 111 % of control | dose: 220.2 mg/kg/injection, schedule: Q01DX Z (ip), vehicle: carboxymethylcellulose (CMC) 121 % of control | dose: 250.0 mg/kg/injection, schedule: Q01DX009 (ip), vehicle: saline 100 % of control and 107 % of control | dose: 250.0 mg/kg/injection, schedule: Q01DX010 (ip), vehicle: saline 108 % of control and 111 % of control | dose: 300.0 mg/kg/injection, schedule: Q01DX Z (ip), vehicle: methylcellulose (MC) 111 % of control | dose: 440.4 mg/kg/injection, schedule: Q01DX Z (ip), vehicle: carboxymethylcellulose (CMC) 113 % of control | dose: 450.0 mg/kg/injection, schedule: Q01DX Z (ip), vehicle: methylcellulose (MC) 105 % of control | dose: 500.0 mg/kg/injection, schedule: Q01DX009 (ip), vehicle: saline 112 % of control and 120 % of control | dose: 500.0 mg/kg/injection, schedule: Q01DX010 (ip), vehicle: saline 117 % of control and 118 % of control | dose: 675.0 mg/kg/injection, schedule: Q01DX Z (ip), vehicle: methylcellulose (MC) 124 % of control | dose: 880.8 mg/kg/injection, schedule: Q01DX Z (ip), vehicle: carboxymethylcellulose (CMC) 121 % of control | dose: 1011.0 mg/kg/injection, schedule: Q01DX Z (ip), vehicle: methylcellulose (MC) 109 % of control

O=C(Nc1ccc(C2=NCCS2)cc1)c1ccc(C(=O)Nc2ccc(C3=NCCS3)cc2)cc1
inactive: dose: 15.0 mg/kg/injection, schedule: Q01DX Z (ip), vehicle: carboxymethylcellulose (CMC) 98 % of control | dose: 30.0 mg/kg/injection, schedule: Q01DX Z (ip), vehicle: carboxymethylcellulose (CMC) 96 % of control | dose: 60.0 mg/kg/injection, schedule: Q01DX Z (ip), vehicle: carboxymethylcellulose (CMC) 95 % of control | dose: 120.0 mg/kg/injection, schedule: Q01DX Z (ip), vehicle: carboxymethylcellulose (CMC) 96 % of control | dose: 125.0 mg/kg/injection, schedule: Q01DX Z (ip), vehicle: water 98 % of control

CC(=O)NC1CCC(C)CC1 (configuration not stated)
inactive: [11] 109 % of control | [1] 93 % of control | [12] 93 % of control | [13] 102 % of control
